PMC3562592 (Journal of the American Chemical Society, 2012)

Molecular target: T1, FAAH (Rattus norvegicus, UniProt P97612)
T1 sequence (P97612 1-579): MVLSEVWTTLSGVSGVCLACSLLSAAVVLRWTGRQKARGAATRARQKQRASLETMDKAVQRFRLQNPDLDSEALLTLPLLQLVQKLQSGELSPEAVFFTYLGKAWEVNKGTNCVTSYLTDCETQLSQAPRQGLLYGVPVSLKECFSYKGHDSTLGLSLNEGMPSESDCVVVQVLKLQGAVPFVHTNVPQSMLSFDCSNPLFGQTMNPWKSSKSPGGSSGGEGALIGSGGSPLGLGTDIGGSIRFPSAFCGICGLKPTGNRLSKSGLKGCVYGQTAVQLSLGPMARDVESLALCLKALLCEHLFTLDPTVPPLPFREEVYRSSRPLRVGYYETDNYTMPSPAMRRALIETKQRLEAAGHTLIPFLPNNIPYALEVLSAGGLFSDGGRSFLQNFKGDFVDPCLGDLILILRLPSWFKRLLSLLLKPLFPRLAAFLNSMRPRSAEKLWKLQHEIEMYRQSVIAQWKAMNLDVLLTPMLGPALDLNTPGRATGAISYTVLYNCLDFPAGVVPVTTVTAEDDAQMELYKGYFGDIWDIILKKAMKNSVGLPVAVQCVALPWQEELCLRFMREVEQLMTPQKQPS
Experiment: WaterLOGSY NMR binding to FAAH

binding to FAAH (WaterLOGSY signals) (enzyme pre-incubated with URB597): did not alter such binding | binding to FAAH (WaterLOGSY signals) (without URB597): able to bind FAAH
Structure (SMILES): CC(C(=O)O)c1ccc2c(c1)[nH]c1ccc(Cl)cc12 (racemic) [carprofen, (RS)-2-(6-chloro-9H-carbazol-2-yl)propanoic acid]
